Assay results: publication PMC9686516, “Pharmacokinetic Characteristics of Nebulized Colistimethate Sodium Using Two Different Types of Nebulizers in Critically Ill Patients with Ventilator-Associated Respiratory Infections” (Antibiotics, 2022)

Conditions: in vivo
Protocol: Subjects were medically followed during the nebulization phase and the post-nebulization period for the development of side effects, especially those related to the respiratory system. In cases of significant hypoxemia and/or bronchospasm, the nebulization and lavage processes were suspended, and the patient was treated as clinically indicated.

colistimethate sodium [CMS]
deterioration of oxygenation during the nebulization: no instances of clinically important deterioration of oxygenation
